From patent publication US10899776B2, “Antiviral and antibacteria agents based on quaternary ammonium compound complexed with boric acid and its derivatives” (B-Organic Films Corp, priority 2015, dated 2021) come the findings set out here.

The experiment relates to White Spot Syndrome Virus (WSSV). Nature of the experiment: Challenge of shrimp L. vannamei with White Spot Syndrome Virus, survival. The settings on record: for survival rate: positive control 10%. Format: in vivo. How it is done: The virus is isolated from WSSV-infected adult L. vannamei shrimp obtained from commercial farms located in Sinaloa, Mexico in 2013. Virus stocks were purified from infected shrimp homogenates by improved differential centrifugation as described previously by Du et al, (Du, H. H., Fu, L. L., Xu, Y. X., Kil, Z. S., Xu. Z. R. 2007. Aquaculture, 262:532-534) and then stored at −80° C. For assays, the WSSV stock is serially diluted to prepare solutions containing various target copy numbers determined by competitive PCR.
A volume of 20 μL of different dilutions of the tissue homogenate (containing WSSV in 330 mM of NaCl) is injected intramuscularly in fourth or fifth abdominal segment of L. vannamei using an insulin needle. The mortality is recorded twice a day and dead shrimp are tested by PCR to highlight the presence of WSSV.
There are two control groups: • 1.
The shrimp mortality percentage is recorded daily.
Dead shrimp are recorded daily during 120 hours.

Consider `C[N+](C)(C)CCOB1OB2OB(O1)OB1OB(O2)O1.[Cl-]` [choline/pentaborate complex], for which the “impact of WSSV infection (summary statement)” value (5 mg/g in feed diets, standardized injection protocols) is “effective in reducing impact of WSSV infection”. Moreover, the survival reads like this: (1% WSSV suspension, 96 h post-challenge, 5 mg/g feed, positive control about 35%, p<0.05) 85%; (1% WSSV suspension, after 72 h, 5 mg/g feed, positive control about 65%) 95%; (3% WSSV suspension, after 48 hours, 5 mg/g feed, positive control about 80%) 95%. The survival rate runs as follows: (3% WSSV suspension, 96 h post-challenge, 1 mg/g feed) approximately 40%; (3% WSSV suspension, 96 h post-challenge, 5 mg/g feed) approximately 40%.
